From patent US12486283B2, “Crystalline salt of eribulin” (priority 2020, dated 2025)
“Also recorded” adds a separate entry of the source. Structures can show the parent of a compound that is named as a salt.

Key:
Type in all cases: physicochemical
[1] = Stability test: purity / related substances by high-performance liquid chromatography after storage; conditions: 75±5% RH; for purity by high-performance liquid chromatography: stored sealed in amber vial at 40±2° C.
Description: (§1) After 2 weeks and 4 weeks of storage, the occurrence and increase of related substances in each sample were evaluated by high-performance liquid chromatography, and changes were confirmed by X-ray powder diffraction analysis and differential scanning calorimetry to evaluate stability.

[2] = Stability test: properties (appearance) and X-ray powder diffraction analysis after storage; conditions: 40±2° C., 75±5% RH
Description: Diffraction patterns were obtained in the range of 3 to 40° 2θ using a X-ray powder diffractometer, and the X-ray powder diffraction analysis conditions were as follows. • Instrument: BrukerA26X1 D2 Phaser • Time per step: 0.5 s • Scanning method: Continuous PSD fast • Detector: Lynxeye (1D mode) (2) Differential Scanning Calorimetry (DSC)
as §1

[3] = Hygroscopicity test by dynamic vapor adsorption and desorption (DVS); conditions: for hygroscopicity compared with amorphous eribulin mesylate: 25° C. and 80% RH; for stability to moisture compared with amorphous eribulin mesylate: DVS hygroscopicity test; for crystalline form after the hygroscopicity test: after the test was completed
Description: Eribulin edisylate obtained in Examples 2, 5, and 7 and the amorphous eribulin mesylate, which is the active component of commercially available Halaven, were subjected to hygroscopicity test by repeating moisture adsorption and desorption once at an interval of 5% RH in an isothermal condition of 25° C. and a relative humidity of 2 to 98% using dynamic vapor adsorption and desorption (DVS) (dynamic vapor adsorption, VTI SGA-100, TA Instruments).

Compound	purity by high-performance liquid chromatography ([1]; time 0 week) [%]	purity by high-performance liquid chromatography ([1]; time 2 weeks) [%]	purity by high-performance liquid chromatography ([1]; time 4 weeks) [%]	purity by high-performance liquid chromatography ([1]; time 4 weeks, listed as eribulin mesylate) [%]	change in properties ([2]; 2nd week)	change in properties ([2]; 4th week)	solid state over time in the stability test ([2]; over time)	X-ray powder diffraction analysis result (solid form) ([2]; time 0 week)	X-ray powder diffraction analysis result (solid form) ([2]; time 0 week, listed as eribulin mesylate)	X-ray powder diffraction analysis result (solid form) ([2]; time 2 weeks)	X-ray powder diffraction analysis result (solid form) ([2]; time 4 weeks)	deliquescence during the hygroscopicity test ([3]; DVS, 25° C., 2 to 98% RH)	decrease in purity (increase in related substances) ([1]; 40±2° C., during 4 weeks) [%]	stability to heat and humidity compared with eribulin mesylate ([1]; 40±2° C., up to 4 weeks, Ammonium Salt)	change in properties ([2]; whole stability test period (4 weeks))	hygroscopicity compared with amorphous eribulin mesylate [3]	stability to moisture compared with amorphous eribulin mesylate ([3]; 25° C.)	crystalline form after the hygroscopicity test ([3]; DVS, 25° C., 2 to 98% RH)	Hygroscopicity (EP standard (25° C., 80% RH)) ([3]; DVS, 25° C.) [%]
C=C1C[C@@H]2CC[C@@]34C[C@H]5O[C@H]6[C@@H](O3)[C@H]3O[C@H](CC[C@@H]3O[C@H]6[C@H]5O4)CC(=O)C[C@@H]3[C@@H](OC)[C@@H](C[C@H](O)CN)O[C@H]3C[C@H]3O[C@@H](CC[C@@H]1O2)C[C@@H](C)C3=C.CS(=O)(=O)O [Eribulin mesylate]	99.66	88.00	7.30	7	the solid deliquesced and the color changed to yellow	the deliquescent state was maintained and the color changed from yellow to brown	deliquescence was observed	amorphous	amorphous solid	deliquescence	deliquescence	deliquescence was observed	–	–	–	–	–	–	–
C=C1C[C@@H]2CC[C@@]34C[C@H]5O[C@@H]6C(O[C@H]7CC[C@H](CC(=O)C[C@@H]8[C@@H](OC)[C@@H](C[C@H](O)CN)O[C@H]8C[C@H]8O[C@@H](CC[C@@H]1O2)C[C@@H](C)C8=C)O[C@@H]7[C@@H]6O3)[C@H]5O4 [Example 2, Eribulin Edisylate Ammonium Salt]	99.73	99.50	99.35	–	–	–	–	crystalline	–	maintain	maintain	–	≤ 0.5	excellent stability to heat and humidity; also recorded: more stable to heat and humidity	No change in properties	lower hygroscopicity	superior stability to moisture	initial crystalline form was maintained	5.4
Eribulin Edisylate Cyclohexylamine Salt [Example 5]	–	–	–	–	–	–	–	–	–	–	–	–	–	–	–	lower hygroscopicity	superior stability to moisture	initial crystalline form was maintained	5.2
Eribulin Edisylate Dicyclohexylamine Salt [Example 7]	–	–	–	–	–	–	–	–	–	–	–	–	–	–	–	lower hygroscopicity	superior stability to moisture	initial crystalline form was maintained	5.6
